In brackets after ≈: the same amount, converted by molar mass. Where two headings read alike, the source gives them in different places.
Tests used:
[1] = tested on: P. falciparum 3D7 strain (Pf3D7); assay: Antiplasmodial activity against P. falciparum 3D7 blood-stage parasites (SYBR Green, 72 h); format: cell-based, Plasmodium falciparum
[2] = eLogD at pH 7.4, miniaturized shake flask method; format: physicochemical; conditions: 1-octanol/PBS (1:1, v/v), pH 7.4, pH 7.4, miniaturized shake flask method
Experimental: eLogD at pH 7.4 was determined using a miniaturized shake flask method. A solution of a presaturated mixture of 1-octanol and phosphate-buffered saline (PBS) (1:1, v/v) and the test compound (75 μM) was incubated at 25 °C with constant shaking (850 rpm) for 2h. After incubation, the organic and aqueous phases were separated, and samples of each phase were transferred to a plate for dilution. […] The samples were quantitated using LC-MS/MS. The experiment was carried out in duplicate. Propranolol, Amitriptyline, and Midazolam were used as reference standards.

[3] = Kinetic solubility at pH 7.4; format: physicochemical; conditions: phosphate-buffered saline, 25 °C, pH 7.4, aqueous buffer, kinetic from dmso stock; read-out: Kinetic solubility (Sol)
Experimental: Kinetic solubility assay was performed using UV–vis detection. […] The samples were filtered using a multiscreen solubility filter plate. The filtrate was diluted by 50% with MeCN. A five-point linearity curve was prepared in PBS/MeCN (1:1, v/v) at 200, 150, 75, 25, and 2.5 μM. Blank, linearity, and test samples (n = 2) were transferred to a UV-readable plate, and the plate was scanned for absorbance. Best-fit calibration curves were constructed using the calibration standards and used to determine the test sample solubility. The experiment was carried out in duplicate. Diethylstilbestrol, Haloperidol, and Diclofenac Sodium were used as reference standards.

[4] = Rat hepatocyte stability; format: in vitro ADME; conditions: rat hepatocyte stability
Experimental: The reaction was terminated with the addition of ice-cold MeCN at designated time points. The samples were then centrifuged (4200 rpm) for 20 min at 20 °C, and the supernatant was half diluted in water and then analyzed using LCMS/MS. The % parent compound remaining, half-life (t 1/2), and clearance (CLint) were calculated using standard methodology. The experiment was carried out in duplicate. Diltiazem, 7-Ethoxy Coumarin, Propranolol, and Midazolam were used as reference standards.

[5] = Human liver microsome stability; format: in vitro ADME; conditions: human, pooled human liver microsomes, human microsomal intrinsic clearance; read-out: hMics, human microsome Clint
Experimental: A solution of the test compounds in phosphate buffer solution (1 μM) was incubated in pooled human or mouse liver microsomes (0.5 mg/mL) for 0, 5, 20, 30, 45, and 60 min at 37 °C in the presence and absence of an NADPH regeneration system (NRS). The tests were conducted by […], India. The reaction was terminated with the addition of ice-cold acetonitrile, containing a […] standard, at designated time points. The sample was centrifuged (4200g) for 20 min at 20 °C and the supernatant was diluted by half in water and then analyzed by LC-MS/MS. The % parent compound remaining, half-life (t 1/2) and clearance (CLint) were calculated using standard methodology. The experiment was carried out in duplicate. Verapamil, diltiazem, phenacetin, and imipramine were used as reference standards.

[6] = tested on: P. falciparum K1 strain; assay: Antiplasmodial activity against resistant P. falciparum K1; format: cell-based; conditions: Plasmodium falciparum, 3D7 / K1; resistant K1, in parallel with 3D7; read-out: IC50^K1 ± SD
[7] = tested on: P. falciparum Dd2 strain; assay: Antiplasmodial activity against resistant P. falciparum Dd2; format: cell-based; conditions: Plasmodium falciparum, 3D7 / DD2; resistant Dd2, in parallel with 3D7; read-out: IC50^Dd2 ± SD
[8] = Resazurin assay for cytotoxicity in HepG2 cells; format: cell-based, human; conditions: human, HepG2 cells; HepG2 cell line, 72 h, resazurin
Experimental: HepG2 cells were trypsinized, counted, and distributed in a 96-well plate at a density of 30,000 cells per well (180 μL). The plate was incubated at 37 °C and 5% CO2 for 24 h. Following incubation, 20 μL of serial dilutions of the tested compounds were added to the wells, with concentrations ranging from 30 to 0.47 μM. The plate was incubated for an additional 72 h at 37 °C and 5% CO2. Untreated cells served as positive controls, while wells containing only medium were used as negative controls. Postincubation, microscopy was employed to determine the highest compound concentration for treatment results. […] Concentration–response curves were generated, and half-maximal inhibitory concentration (CC50) values were determined using nonlinear regression analysis.

[9] = tested on: P. falciparum 3D7 (chloroquine-sensitive); assay: Effect of verapamil on inhibitory activity in P. falciparum 3D7; format: cell-based; conditions: Plasmodium falciparum
[10] = tested on: P. falciparum Dd2 (chloroquine resistance); assay: Effect of verapamil on inhibitory activity in P. falciparum Dd2; format: cell-based; conditions: Plasmodium falciparum
[11] = Plasmodium falciparum, 3D7, 72 h, 3D7 strain, 72 h, SYBR Green, read-out: Pf3D7-IC50
[12] = Plasmodium falciparum, 3D7 / DD2, sensitive 3D7, in parallel with K1 and Dd2, read-out: IC50^3D7 ± SD

Structure (SMILES)	IC50 [1, 11] [µM]	logD at 2 h [2]	solubility kinetic at 2 h [3] [µM]	R Heps (Clint) [4] [μL/min/10^6]	microsomal CLint at 1 μM [5] [µL/min/mg]	IC50 ([1]; 3D7 strain, 72 h, SYBR Green, read-out: Pf3D7-IC50) [µM]	IC50 [1, 12] [µM]	IC50 [6] [µM]	IC50 [7] [µM]	CC50 at 72 h [8] [µM]	IC50 ([9]; 3D7, verapamil experiment, read-out: IC50 in 3D7 strain) [µM]	IC50 ([9]; read-out: IC50^3D7 (10 μM VP), 3D7, presence of 10 μM verapamil) [µM]	IC50 ([9]; 3D7, absence of verapamil, read-out: IC50^3D7 (without VP)) [µM]	IC50 ([10]; read-out: IC50^Dd2 (10 μM VP), Dd2, presence of 10 μM verapamil) [µM]	IC50 ([10]; Dd2, absence of verapamil, read-out: IC50^Dd2 (without VP)) [µM]
O=C(c1cc2cc(F)ccc2[nH]1)N(Cc1cccnc1)CC1CCNC1 (stereo not drawn) [Compound 6e, 5-Fluoro-N-(3-pyridylmethyl)-N-(pyrrolidin-3-ylmethyl)-1H-indole-2-carboxamide]	8.8 ± 0.1	-0.1	> 1000	32	7										
Cl.O=C(c1cc2cc(Cl)ccc2[nH]1)N(Cc1cccnc1)C1CCNCC1 [Compound 6x, 5-Chloro-N-(piperidin-4-yl)-N-(pyridin-3-ylmethyl)-1H-indole-2-carboxamide hydrochloride]	~0.3	1	196	2	3	0.33 ± 0.08	0.4 ± 0.3	5.2 ± 0.2	4.7 ± 0.8	> 30	~0.15	0.214	0.148	0.56	2.94
O=C(c1cc2cc(Cl)ccc2[nH]1)N(Cc1cccnc1)CC1CCNCC1 [Compound 6w, 5-Chloro-N-(4-piperidylmethyl)-N-(3-pyridylmethyl)-1H-indole-2-carboxamide]	0.9 ± 0.1	0.5	> 1000	9	< 3										
Cc1c(C(=O)N(Cc2cccnc2)CC2CCNC2)[nH]c2ccc(Cl)cc12 (stereo not drawn) [Compound 6g, 5-Chloro-3-methyl-N-(3-pyridylmethyl)-N-(pyrrolidin-3-ylmethyl)-1H-indole-2-carboxamide]	5.8						4.2 ± 0.5	6.3 ± 0.3	9 ± 0.7						
CN1CCC(CN(Cc2cccnc2)C(=O)c2cc3cc(Cl)ccc3[nH]2)C1 (stereo not drawn) [Compound 7a, 5-Chloro-N-[(1-methylpyrrolidin-3-yl)methyl]-N-(pyridin-3-ylmethyl)-1H-indole-2-carboxamide]	0.46 ± 0.05	1.6	190 (≈ 72.8 µg/mL)	28	20		0.8 ± 0.2	1.2 ± 0.3	2.2 ± 0.3						
CNCCN(Cc1cccnc1)C(=O)c1cc2cc(Cl)ccc2[nH]1 [Compound 6u, 5-Chloro-N-[2-(methylamino)ethyl]-N-(3-pyridylmethyl)-1H-indole-2-carboxamide]	1.8 ± 0.2	2.6	148 (≈ 50.7 µg/mL)	29	20										
O=C(c1cc2cc(Cl)ccc2[nH]1)N(Cc1cccnc1)C[C@H]1CCNC1 [6a (S), 5-Chloro-N-(3-pyridylmethyl)-N-[[(3S)-pyrrolidin-3-yl]methyl]-1H-indole-2-carboxamide]	2 ± 0.4	0.7	196 (≈ 72.3 µg/mL)	12	3					> 30					
O=C(c1cc2cc(C(F)(F)F)ccc2[nH]1)N(Cc1cccnc1)C1CCNCC1 [Compound 6y, N-(Piperidin-4-yl)-N-(pyridin-3-ylmethyl)-5-(trifluoromethyl)-1H-indole-2-carboxamide]	0.22 ± 0.09	1.4	> 200	4	17		0.3 ± 0.1	2.1 ± 0.2	1.6 ± 0.3	> 30					
O=C(c1cc2cc(Cl)ccc2[nH]1)N(Cc1ccc(C(F)(F)F)nc1)CC1CCNC1 (stereo not drawn) [Compound 6o, 5-Chloro-N-(pyrrolidin-3-ylmethyl)-N-[[6-(trifluoromethyl)-3-pyridyl]methyl]-1H-indole-2-carboxamide]	4.3 ± 0.2	1.5	883 (≈ 386 µg/mL)	10	3										
O=C(c1cc2cccc(Cl)c2[nH]1)N(Cc1cccnc1)CC1CCNC1 (stereo not drawn) [Compound 6c, 7-Chloro-N-(3-pyridylmethyl)-N-(pyrrolidin-3-ylmethyl)-1H-indole-2-carboxamide]	2.2 ± 0.3	0.2	> 1000	60	4		2.3 ± 0.6	4.9 ± 0.6	8.2 ± 0.3						
O=C(c1cc2cc(Cl)ccc2[nH]1)N(Cc1cccnc1)C[C@@H]1CCNC1 [6a (R), 5-Chloro-N-(3-pyridylmethyl)-N-[[(3R)-pyrrolidin-3-yl]methyl]-1H-indole-2-carboxamide]	1 ± 0.2	0.7	196 (≈ 72.3 µg/mL)	8	10					> 30					
O=C(c1cc2cc(Cl)ccc2[nH]1)N(Cc1cccnc1)C1CCNC1 (stereo not drawn) [Compound 6v, 5-Chloro-N-(3-pyridylmethyl)-N-pyrrolidin-3-yl-1H-indole-2-carboxamide]	0.57 ± 0.07	0.9	> 1000	17	< 3										
CN1CCC(N(Cc2cccnc2)C(=O)c2cc3cc(Cl)ccc3[nH]2)CC1 [Compound 5t, 5-Chloro-N-(1-methylpiperidin-4-yl)-N-(pyridin-3-ylmethyl)-1H-indole-2-carboxamide]	0.37 ± 0.04	2.3	> 200	50	36		0.3 ± 0.1	0.5 ± 0.3	0.7 ± 0.2	> 30					

From article PMC12531871, “Indole-2-carboxamides Optimization for Antiplasmodial Activity” (ACS Bio & Med Chem Au, 2025)
